Results from patent US5925369A, “Bis alkanoyl esters of carnitine having bactericidal, fungicidal and antiprotozoal activity” (priority 1996, dated 1999).

Key:
[1] = system: Gram positive bacteria; assay: MIC on Gram positive bacteria (all strains); type: cell-based
Description: (§1) Bacterial suspensions are prepared from an overnight culture in Mueller-Hinton broth and are adjusted, in the same medium, to a final concentration of 5.0×10^4 cells/ml in each well of a 96-well microtiter plate. Substance dilutions (0.3 log) in Mueller-Hinton broth are added to the suspensions in order to have a range of final concentrations from 0.19 to 100 mcg/ml.
(§2) Microtiters are then incubated at 37° C. for 18 hours. (See L. D. THRUPP, Susceptibility testing of antibiotics in liquid media, in: Antibiotics in laboratory medicine. V. LORIAN Ed., II edition, 4, 93-150, Williams & Wilkins, Baltimora, Md. 21202 U.S.A.).

[2] = system: Gram negative bacteria; assay: MIC on Gram negative bacteria (all strains); type: cell-based; conditions: 5 strains
Description: as §1, §2

[3] = system: Aspergillus fumigatus; assay: MIC on filamentous fungi; type: cell-based; conditions: ATCC28212; Aspergillus fumigatus ATCC 28212, lab collection; read-out: Minimal Inhibitory Concentration
Description: (§3) The conidia are collected from 72-hour cultures in Sabouraud agar by washing them with Sabouraud broth and 0.5% Tween 80. After a coarse filtration and washing, the resulting suspensions are adjusted to a final concentration of approx. 5.0×10^4 CFU/ml in a microtiter plate. The substances (0.3 log dilutions in Y.N.B.s.) are added to the fungal suspensions in order to generate a range of final concentrations from 0.19 to 100 mcg/ml. The microtiter plates are then incubated at 35° C. for 48-72 hours.

[4] = system: Fusarium sp.; assay: MIC on filamentous fungi; type: cell-based; conditions: Fusarium sp. F 77, lab collection; read-out: Minimal Inhibitory Concentration
Description: as §3

[5] = system: Mucor mucedo; assay: MIC on filamentous fungi; type: cell-based; conditions: ATCC7941; Mucor mucedo ATCC 7941, lab collection; read-out: Minimal Inhibitory Concentration
Description: as §3

[6] = system: Penicillium sp.; assay: MIC on filamentous fungi; type: cell-based; conditions: Penicillium sp. 1302, lab collection; read-out: Minimal Inhibitory Concentration
Description: as §3

[7] = system: bacteria and fungi; conditions: bactericidal (EP-A-0 552 137) and fungicidal (EP-A-0 552 138); cited from earlier work
[8] = system: T. mentagrophytes IDI D1049; assay: Antifungal activity in experimental Tinea pedis in the guinea-pig paw; type: in vivo, Hartley guinea-pig; conditions: for A (clinical sign score) / D (clinical sign score) / E (clinical sign score): scale 0-3; for sterile samples (%) / sterile samples (n = 30), number over total: 20 days once a day, day +31
Text: Twelve male Hartley guinea-pig (C. RIVER), weighing 350-400 gr, have been utilized (3 animals per experimental group).
One clinical isolate (Tricophyton mentagrophytes IDI D 1049, from Immacolata Dermatological Institute of Rome) was utilized.
Microaleuriospores were first harvested by scraping from a 7-day fungal culture grown in Potato dextrose agar, and then resuspended in Sabouraud broth with 0.5% Tween 80.
After washing, the spores were standardized in sterile saline to yield a final concentration of 1.0×10^8 spores/ml.
Each group included 3 animals, and only the left hind paw was inoculated. For the 2 control groups, 3 animals in total were used, as both hind paws of each animal were inoculated.
Filter paper discs (12-mm diameter and 0.3-mm thickness) were covered with aluminum foil in the lower part to prevent the inoculum spreading. This filter was then sticked to a 1×3-cm piece of biadesive plaster, which adhered to a gauze wrapped around the paw.
The filter paper disc was then wetted with 100 μl of the infective suspension, and subsequently fixed to the guinea-pig paw.
The animal paw was tied up with bandage and plaster, and then left in these conditions for 7 days.
Seven days after infection, the infected areas were uncovered and the type of lesion was graded according to an arbitrary scale, as follows:
These "clinical" signs were examined again on days +14, +21, and +31 (day of sacrifice of animals). Three days following the first observation of the type of lesion (day +10), treatments with the differrent formulations were started, and they went on for 20 days (once a day). Two days following the last treatment (day +31), animals were sacrificed and plantar areas of the paws were dissected into 10 parts for each paw.
These sections were plated onto Mycobiotic agar supplemented with Penicillin G and Streptomicin (100 mcg/ml). Volumes of 50 μl of both antibiotics were then added to the plantar sections to prevent any bacterial growth that might interfere with the growth of T. mentagrophytes in the samples under examination.
The data obtained were expressed as the number of microbiologically sterile cutaneous sections over the total examined sections.

CCCCCCCCCCCOC(=O)C[C@H](C[N+](C)(C)C)OC(=O)CC(C)C [ST 1103, isovaleryl L-carnitine undecyl ester methanesulfonate, reference compound]
MIC ([1]; clinical isolates, 10 strains): 3.9 µg/mL
MIC ([1]; lab collection, 5 strains): 4.06 µg/mL
MIC ([2]; clinical isolates): 35 µg/mL
MIC ([2]; lab collection): 27.5 µg/mL
MIC [3]: 12.5 µg/mL
MIC [4]: 6.25 µg/mL
MIC [5]: 50 µg/mL
MIC [6]: 12.5 µg/mL
activity among the known compounds [7]: most active both as bactericidal and fungicidal agent

CCCCCCCCCCC(=O)O[C@H](CC(=O)OCc1ccc(COC(=O)C[C@H](C[N+](C)(C)C)OC(=O)CCCCCCCCCC)cc1)C[N+](C)(C)C [ST 1226, bis(undecanoyl L-carnitine chloride)p-xylilene diester]
MIC ([2]; clinical isolates): 35 µg/mL
MIC ([2]; lab collection): 26.2 µg/mL
MIC [3]: 6.25 µg/mL
MIC [4]: 3.12 µg/mL
MIC [5]: 25 µg/mL
MIC [6]: 1.56 µg/mL
microbiological recovery ([8]; 1% ST 1226): 80%
A (clinical sign score) ([8]; 1%, 7th day): 0
D (clinical sign score) ([8]; 1%, 7th day): 0
E (clinical sign score) ([8]; 1%, 7th day): 0
A (clinical sign score) ([8]; 1%, 14th day): 0
D (clinical sign score) ([8]; 1%, 14th day): 0
E (clinical sign score) ([8]; 1%, 14th day): 0
A (clinical sign score) ([8]; 1%, 21st day): 0
D (clinical sign score) ([8]; 1%, 21st day): 0
E (clinical sign score) ([8]; 1%, 21st day): 0
A (clinical sign score) ([8]; 1%, 31st day): 0
D (clinical sign score) ([8]; 1%, 31st day): 0
E (clinical sign score) ([8]; 1%, 31st day): 0
sterile samples (%) ([8]; 1%): 80%
sterile samples (n = 30), number over total ([8]; 1%): 24/30
microbiological recovery ([8]; 1.5% ST 1226): 100%
A (clinical sign score) ([8]; 1.5%, 7th day): 0
D (clinical sign score) ([8]; 1.5%, 7th day): 0
E (clinical sign score) ([8]; 1.5%, 7th day): 0
A (clinical sign score) ([8]; 1.5%, 14th day): 0
D (clinical sign score) ([8]; 1.5%, 14th day): 0
E (clinical sign score) ([8]; 1.5%, 14th day): 0
A (clinical sign score) ([8]; 1.5%, 21st day): 0
D (clinical sign score) ([8]; 1.5%, 21st day): 0
E (clinical sign score) ([8]; 1.5%, 21st day): 0
A (clinical sign score) ([8]; 1.5%, 31st day): 0
D (clinical sign score) ([8]; 1.5%, 31st day): 0
E (clinical sign score) ([8]; 1.5%, 31st day): 0
sterile samples (%) ([8]; 1.5%): 100%
sterile samples (n = 30), number over total ([8]; 1.5%): 20/20
